Article PMC8746328, “Three New Isoprenylated Flavones from Artocarpus chama Stem and Their Bioactivities” (Molecules, 2021)
≈ marks a conversion by molar mass, not a printed value. Read-outs that look alike come from different tables or passages of the source.

What was measured:
[1] = test system: Cutibacterium acnes (DMST 14916); experiment: Antimicrobial activity, broth microdilution; format: cell-based; settings: C. acnes
Experimental: (§1) Microorganisms that cause skin infection, such as Staphylococcus aureus (ATTC 25923), Staphylococcus epidermidis (TISTR 517), Cutibacterium acnes (DMST 14916), and methicillin-resistant Staphylococcus aureus (DMST20654),t were selected for this study. The isolated compounds were determined for minimum inhibitory concentration (MIC) and minimum bactericidal concentration (MBC) by a modified broth microdilution method. Briefly, 20 µL of the test samples (dilution series ranging from 2560 to 1.25 µg/mL) was added in wells 1 to 12. Then, 80 µL of media was added into each well. Next, 100 µL of the inoculum (concentration 10^6 CFU/mL) was added in each well. The final concentration of inoculum in each well was 5 × 10^5 CFU/mL. Then, the cultures were incubated follow the conditions. Incubation mixtures showing positive results of inhibitory effect (MIC) were streaked on media agar, and then incubated by following the conditions.

[2] = test system: Staphylococcus aureus (ATTC 25923); experiment: Antimicrobial activity, broth microdilution; format: cell-based; settings: S. aureus
Experimental: as §1

[3] = test system: Staphylococcus epidermidis (TISTR 517); experiment: Antimicrobial activity, broth microdilution; format: cell-based; settings: TISTR517, S. epidermidis
Experimental: as §1

[4] = test system: methicillin-resistant Staphylococcus aureus (DMST20654); experiment: Antimicrobial activity, broth microdilution; format: cell-based; settings: MRSA
Experimental: as §1

[5] = biological target: tyrosinase enzyme; experiment: Enzymatic antityrosinase activity, dopachrome method (L-Dopa substrate); format: biochemical; settings: pH 6.8, 25 °C
Experimental: Antityrosinase activity was determined by the dopachrome method. L-dopa was used as the substrate. Oxidation of L-Dopa to dopachrome which, represented by red color, could be detected by visible light at 492 nm. Briefly, 140 µL of phosphate buffer pH 6.8, 20 µL of sample solution (200 µg/mL), and 2 µL of tyrosinase enzyme solution (203.3 unit/mL) were mixed in a 96-well plate at 25 °C for 10 min. Then, 20 µL of L-Dopa (0.85 mM) was added, and optical density (OD) was detected. After incubation at 25 °C for 20 min, OD was detected again. Dimethyl sulfoxide (DMSO) was used as a negative control. […] The percent inhibition of tyrosinase reaction was calculated by the following equation:Tyrosinase inhibition (%) = [1 − (OD492 of sample/OD492 of control)] × 100.

[6] = test system: B16F1 melanoma cells; experiment: Intracellular antityrosinase activity; format: cell-based, murine; settings: 50 µg/mL, 48 h
Experimental: (§2) Murine melanoma B16-F1 cells (CLS-400122) were cultured in DMEM or Dulbecco’s modified Eagle medium containing 10% FBS heat-inactivated fetal bovine serum at 37 °C in a humidified atmosphere with 5% CO2. When cells reached 70–80% confluence cell viability, cellular tyrosinase activity and melanin content were measured. First, 3 × 10^5 cells/well were seeded in 12-well plates and allowed to adhere at 37 °C for 12 h. Cells were treated with test samples; control cells were treated with 0.5% DMSO. After 48 h incubation, cells were lysed with RIPA and centrifuged at 14,000 rpm for 20 min (4 °C) in order to separate the supernatant for measurement of tyrosinase activity, and the cell pellet was measured for melanin content. The supernatant was collected for determination of protein content by the Bradford method, with bovine serum albumin (BSA) used as a standard. The supernatant of lysate cells and 2 mg/mL L-Dopa were added to a 96-well plate and incubated at 25 °C for 1 h. After that, optical densities were determined at 492 nm. Tyrosinase inhibition was then calculated.

[7] = test system: B16F1 melanoma cells; experiment: Melanin content; format: cell-based, murine; settings: 50 µg/mL, 48 h
Experimental: as §2, with “Cell pellets were dissolved” for “The supernatant was collected for determination of protein content by the Bradford method,”, “1M NaOH” for “bovine serum albumin (BSA) used as a standard. The supernatant of lysate cells and 2 mg/mL L-Dopa were added to a 96-well plate”, “55” for “25”, “Melanin content was calculated by comparison with the standard curve of synthetic melanin” for “After that, optical densities were determined”, “475” for “492”, “nm.” for “nm. Tyrosinase inhibition was then calculated.”

For `COc1cc([C@@H]2CC(=O)c3c(O)cc(O)cc3O2)ccc1O` [Compound 4, Homoeriodictyol], the MBC [1] was > 256 mg/L, the MIC [1] was > 256 mg/L and the MBC [2] was > 256 mg/L. It also gave an MIC [2] of 256 mg/L (≈ 847 µM), an MBC [3] of 256 mg/L (≈ 847 µM) and an MIC [3] of 128 mg/L (≈ 423 µM). For the same compound, the MBC ([4]; read-out: MBC) was > 256 mg/L and the MIC ([4]; read-out: MIC) was > 256 mg/L.
For `COc1cc(O)c(-c2oc3cc(O)cc(O)c3c(=O)c2CC=C(C)C)cc1O` [Compound 3, 3-Prenyl-5,7,2′,5′-tetrahydroxy-4′-methoxyflavone], the “IC50 on tyrosinase inhibitory activity” value [5] was >200 mg/L, the MBC [1] was > 256 mg/L and the MIC [1] was 128 mg/L (≈ 333 µM). For the same compound, the MBC [2] was 16 mg/L (≈ 41.6 µM), the MIC [2] was 4 mg/L (≈ 10.4 µM) and the MBC [3] was 64 mg/L (≈ 167 µM). For the same compound, the MIC [3] was 16 mg/L (≈ 41.6 µM), the MBC ([4]; read-out: MBC) was 32 mg/L (≈ 83.3 µM) and the MIC ([4]; read-out: MIC) was 4 mg/L (≈ 10.4 µM).
In the case of `COc1cc(O)c2c(c1)O[C@H](c1ccc(O)cc1O)CC2=O` [Compound 6, Artocarpanone], the “IC50 on tyrosinase inhibitory activity” value [5] was 38.78 ± 1.02 mg/L (≈ 128 µM), the “Intracellular antityrosinase activity (result in words)” value [6] was “exhibited antityrosinase activity” and the “Intracellular antityrosinase activity (result in words)” value ([6]; listed as artocarpanone) was “exhibited intracellular antityrosinase activity”. The “Melanin content (result in words)” value [7] was “could reduce the amount of melanin content”, the MBC [1] was 64 mg/L (≈ 212 µM) and the MIC [1] was 32 mg/L (≈ 106 µM). It also gave an MBC [2] of 256 mg/L (≈ 847 µM), an MIC [2] of 64 mg/L (≈ 212 µM) and an MBC [3] of 128 mg/L (≈ 423 µM). The MIC [3] was 64 mg/L (≈ 212 µM), the MBC ([4]; read-out: MBC) was > 256 mg/L and the MIC ([4]; read-out: MIC) was 128 mg/L (≈ 423 µM).
`O=C1C[C@@H](c2ccc(O)cc2)Oc2cc(O)cc(O)c21` [Compound 7, Naringenin] was tested, and the “IC50 on tyrosinase inhibitory activity” value [5] was >200 mg/L, the MBC [1] was > 256 mg/L and the MIC [1] was > 256 mg/L. The MBC [2] was > 256 mg/L, the MIC [2] was > 256 mg/L and the MBC [3] was > 256 mg/L. The MIC [3] was 256 mg/L (≈ 940 µM), the MBC ([4]; read-out: MBC) was > 256 mg/L and the MIC ([4]; read-out: MIC) was > 256 mg/L.
`CN[C@H](CC(C)C)C(=O)N[C@H]1C(=O)N[C@@H](CC(N)=O)C(=O)N[C@H]2C(=O)N[C@H]3C(=O)N[C@H](C(=O)N[C@H](C(=O)O)c4cc(O)cc(O)c4-c4cc3ccc4O)[C@H](O)c3ccc(c(Cl)c3)Oc3cc2cc(c3O[C@@H]2O[C@H](CO)[C@@H](O)[C@H](O)[C@H]2O[C@H]2C[C@](C)(N)[C@H](O)[C@H](C)O2)Oc2ccc(cc2Cl)[C@H]1O` [Van, Vancomycin, reference compound] was tested, and the MBC [4] was 0.5 mg/L (≈ 0.345 µM) and the MIC [4] was 0.125 mg/L (≈ 0.0863 µM).
In the case of `COc1cc2oc(-c3ccc(O)cc3O)c(CC=C(C)C)c(=O)c2c(O)c1/C=C/C(C)C` [Compound 8, artocarpin], the “IC50 on tyrosinase inhibitory activity” value [5] was >200 mg/L, the MBC [1] was 32 mg/L (≈ 73.3 µM) and the MIC [1] was 8 mg/L (≈ 18.3 µM). The MBC [2] was 4 mg/L (≈ 9.16 µM), the MIC [2] was 2 mg/L (≈ 4.58 µM) and the MBC [3] was 32 mg/L (≈ 73.3 µM). For the same compound, the MIC [3] was 2 mg/L (≈ 4.58 µM), the MBC ([4]; read-out: MBC) was 2 mg/L (≈ 4.58 µM) and the MIC ([4]; read-out: MIC) was 2 mg/L (≈ 4.58 µM).
In the case of `CC1(C)C=Cc2c(cc3oc4c(c(=O)c3c2O)CC2c3c(c(O)cc(O)c3-4)OC2(C)C)O1` (stereo not shown) [Compound 5, Isocycloartobiloxanthone], the “IC50 on tyrosinase inhibitory activity” value [5] was >200 mg/L, the MBC [1] was > 256 mg/L and the MIC [1] was 256 mg/L (≈ 589 µM). It also gave an MBC [2] of 8 mg/L (≈ 18.4 µM), an MIC [2] of 4 mg/L (≈ 9.21 µM) and an MBC [3] of 8 mg/L (≈ 18.4 µM). The MIC [3] was 4 mg/L (≈ 9.21 µM), the MBC ([4]; read-out: MBC) was 64 mg/L (≈ 147 µM) and the MIC ([4]; read-out: MIC) was 16 mg/L (≈ 36.8 µM).
In the case of `CC(C)=CC(O)c1c(-c2cc(O)c(O)cc2O)oc2cc(O)cc(O)c2c1=O` (stereo not shown) [Compound 2, 3-(Hydroxyprenyl) isoetin], the “IC50 on tyrosinase inhibitory activity” value [5] was >200 mg/L, the MBC [1] was > 256 mg/L and the MIC [1] was 128 mg/L (≈ 331 µM). The MBC [2] was 32 mg/L (≈ 82.8 µM), the MIC [2] was 16 mg/L (≈ 41.4 µM) and the MBC [3] was 32 mg/L (≈ 82.8 µM). The MIC [3] was 16 mg/L (≈ 41.4 µM), the MBC ([4]; read-out: MBC) was 64 mg/L (≈ 166 µM) and the MIC ([4]; read-out: MIC) was 16 mg/L (≈ 41.4 µM).
In the case of `CC(C)=CCCC(C)=CCCC(C)=CCc1cc(-c2cc(=O)c3c(O)cc(O)cc3o2)ccc1O` [Compound 1, 3′-Farnesylapigenin], the “IC50 on tyrosinase inhibitory activity” value [5] was 135.70 ± 1.16 mg/L (≈ 286 µM), the MBC [1] was > 256 mg/L and the MIC [1] was > 256 mg/L. The MBC [2] was > 256 mg/L, the MIC [2] was 256 mg/L (≈ 539 µM) and the MBC [3] was > 256 mg/L. For the same compound, the MIC [3] was 256 mg/L (≈ 539 µM), the MBC ([4]; read-out: MBC) was > 256 mg/L and the MIC ([4]; read-out: MIC) was > 256 mg/L.
With `Cc1onc(-c2ccccc2)c1C(=O)N[C@@H]1C(=O)N2[C@@H]1SC(C)(C)[C@@H]2C(=O)O` [Oxa, Oxacillin, reference compound] the MBC [1] was 0.5 mg/L (≈ 1.25 µM), the MIC [1] was 0.5 mg/L (≈ 1.25 µM) and the MBC [2] was 0.125 mg/L (≈ 0.311 µM). The MIC [2] was 0.125 mg/L (≈ 0.311 µM), the MBC [3] was 0.5 mg/L (≈ 1.25 µM) and the MIC [3] was 0.5 mg/L (≈ 1.25 µM).
